Laboratory results taken from ChEMBL document CHEMBL5226282, “TLR2 Agonistic Small Molecules: Detailed Structure-Activity Relationship, Applications, and Future Prospects” (J Med Chem, 2021).
Where a SMILES comes first, the peptide text is derived from it. The star is where a group is joined. X2 = CCCCCCCCCCCCCCCC(=O)OCC(C*)OC(=O)CCCCCCCCCCCCCCC; Palmitoyl = CCCCCCCCCCCCCCCC(=O)*

What was measured:
Toll-like receptor 2 [1] = target: T1, Toll-like receptor 2 (Homo sapiens, UniProt O60603); assay: Agonist activity at TLR2 (unknown origin)
Toll-like receptor 2 [2] = target: T1, Toll-like receptor 2; assay: Agonist activity at human TLR2 transfected in HEK293 cells relative to control; type: cell-based
Toll-like receptor 2 [3] = target: T1, Toll-like receptor 2; assay: Agonist activity at human TLR2 transfected in HEK293 cells; type: cell-based
Toll-like receptor 1/2 = Toll-like receptor 1/2 (Homo sapiens, UniProt O60603+Q15399); assay: Agonist activity at TLR2/TLR1 (unknown origin) assessed as induction of IL-8 production relative to control; type: protein-complex assay; settings: filed as agonist

T1 sequence (O60603 whole entry): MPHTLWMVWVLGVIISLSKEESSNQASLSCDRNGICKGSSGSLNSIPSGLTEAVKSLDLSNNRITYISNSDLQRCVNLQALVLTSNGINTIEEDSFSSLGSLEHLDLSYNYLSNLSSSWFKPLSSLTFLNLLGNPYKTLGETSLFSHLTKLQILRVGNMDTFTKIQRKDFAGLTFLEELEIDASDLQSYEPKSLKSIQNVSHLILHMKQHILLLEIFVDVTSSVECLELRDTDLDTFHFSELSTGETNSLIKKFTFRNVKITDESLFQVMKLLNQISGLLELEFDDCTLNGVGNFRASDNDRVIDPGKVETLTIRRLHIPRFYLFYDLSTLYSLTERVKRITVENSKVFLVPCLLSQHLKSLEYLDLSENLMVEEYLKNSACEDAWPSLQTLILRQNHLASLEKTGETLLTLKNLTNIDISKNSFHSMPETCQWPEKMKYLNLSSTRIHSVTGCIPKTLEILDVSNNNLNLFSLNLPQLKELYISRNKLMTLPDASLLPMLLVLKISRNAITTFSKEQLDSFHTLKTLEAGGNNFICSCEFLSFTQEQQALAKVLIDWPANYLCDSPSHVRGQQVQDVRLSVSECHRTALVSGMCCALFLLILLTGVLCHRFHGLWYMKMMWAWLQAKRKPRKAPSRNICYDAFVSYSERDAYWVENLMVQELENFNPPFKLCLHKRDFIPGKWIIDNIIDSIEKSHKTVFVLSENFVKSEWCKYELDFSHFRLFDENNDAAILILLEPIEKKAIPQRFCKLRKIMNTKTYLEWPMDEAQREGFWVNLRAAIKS

Row | Structure (SMILES) | EC50 (Toll-like receptor 2 [1]) | EC50 (Toll-like receptor 2 [2]) | EC50 (Toll-like receptor 2 [3]) | Activity (Toll-like receptor 1/2)
1 | CCCCCCCCCCCC[C@H](CSC[C@@H](N)C(=O)NCCOCCOCCOCCP(=O)(O)O)OC(=O)NCCCCCCCCCCC | – | > 100 µM | > 100 µM | –
2 | CCCCCCCCCCCCCCCC(=O)N[C@H](CSC[C@@H](COC(=O)NCCCCCCCCCC)OC(=O)NCCCCCCCCCC)C(=O)NCCOCCOCCOCCP(=O)(O)O | – | 2.64 µM | 2.64 µM | –
3 | CCCCCCCCCCNC(=O)OC[C@H](CSC[C@@H](NC(C)=O)C(=O)NCCOCCOCCOCCP(=O)(O)O)OC(=O)NCCCCCCCCCC | – | 0.83 µM | 0.83 µM | –
4 | CCCCCCCCNC(=O)OC[C@H](CSC[C@@H](N)C(=O)NCCOCCOCCOCCP(=O)(O)O)OC(=O)NCCCCCCCC | – | 7.03 µM | 7.03 µM | –
5 | CCCCCCCCCCCCCC(=O)OC[C@H](CSC[C@@H](N)C(=O)NCCOCCOCCOCCP(=O)(O)O)OC(=O)CCCCCCCCCCCCC | – | 0.0063 µM | 0.0063 µM | –
6 | CCCCCCCCCCCCCCCC(=O)N[C@H](CSC[C@@H](COC(=O)CCCCCCCCCCC)OC(=O)CCCCCCCCCCC)C(=O)NCCOCCOCCOCCP(=O)(O)O | – | > 100 µM | > 100 µM | –

Other lines, results leading:

Row | EC50 (Toll-like receptor 2 [1]) | EC50 (Toll-like receptor 2 [2]) | EC50 (Toll-like receptor 2 [3]) | Activity (Toll-like receptor 1/2) | Structure (SMILES)
7 | 1.16 µM | – | – | – | CCCCCCCCCCCCCCCC(=O)OCC[C@H](CS[C@H](NC(C)=O)C(=O)N[C@@H](CO)C(=O)N[C@@H](CCCCN)C(=O)N[C@@H](CCCCN)C(=O)N[C@@H](CCCCN)C(=O)N[C@@H](CCCCN)C(=O)N[C@@H](CO)C(=O)N[C@@H](CC(C)C)C(=O)N[C@@H](CC(C)C)C(=O)N[C@@H](CCSC)C(=O)N[C@@H](Cc1c[nH]c2ccccc12)C(=O)N[C@H](C(=O)N[C@H](C(=O)N[C@@H](CCC(N)=O)C(=O)N[C@H](C(=O)O)C(C)C)[C@@H](C)O)[C@@H](C)CC)OC(=O)CCCCCCCCCCCCCCC
8 | – | – | – | 93% | CCCCCCCCCCCCCCCC(=O)N[C@@H](CSCC(COC(=O)CCCCCCCCCCCCCCC)OC(=O)CCCCCCCCCCCCCCC)C(=O)N[C@@H](CCC(N)=O)C(=O)N1CCC[C@H]1C(=O)N[C@@H](CC(=O)O)C(=O)N[C@@H](CCCNC(=N)N)C(=O)N[C@@H](Cc1ccc(O)cc1)C(N)=O (stereo partly specified) (Palmitoyl-C(X2)QPDRY-NH2)
9 | – | – | – | 112% | CCCCCCCCCCCCCCCC(=O)N[C@@H](CSCC(COC(=O)CCCCCCCCCCCCCCC)OC(=O)CCCCCCCCCCCCCCC)C(=O)N[C@@H](CCCNC(=N)N)C(=O)N1CCC[C@H]1C(=O)N[C@@H](CC(=O)O)C(=O)N[C@@H](CCCNC(=N)N)C(=O)N[C@@H](Cc1ccc(O)cc1)C(N)=O (stereo partly specified) (Palmitoyl-C(X2)RPDRY-NH2)
10 | 0.383 µM | – | – | – | CCCCCCCCCCCCCCCC(=O)OCCC[C@H](CS[C@H](N)C(=O)N[C@@H](CO)C(=O)N[C@@H](CCCCN)C(=O)N[C@@H](CCCCN)C(=O)N[C@@H](CCCCN)C(=O)N[C@@H](CCCCN)C(=O)N[C@@H](CO)C(=O)N[C@@H](CC(C)C)C(=O)N[C@@H](CC(C)C)C(=O)N[C@@H](CCSC)C(=O)N[C@@H](Cc1c[nH]c2ccccc12)C(=O)N[C@H](C(=O)N[C@H](C(=O)N[C@@H](CCC(N)=O)C(=O)N[C@H](C(=O)O)C(C)C)[C@@H](C)O)[C@@H](C)CC)OC(=O)CCCCCCCCCCCCCCC
11 | 0.468 µM | – | – | – | CCCCCCCCCCCCCCCC(=O)OC[C@H](CS[C@H](N)C(=O)N[C@@H](CO)C(=O)N[C@@H](CCCCN)C(=O)N[C@@H](CCCCN)C(=O)N[C@@H](CCCCN)C(=O)N[C@@H](CCCCN)C(=O)N[C@@H](CO)C(=O)N[C@@H](CC(C)C)C(=O)N[C@@H](CC(C)C)C(=O)N[C@@H](CCSC)C(=O)N[C@@H](Cc1c[nH]c2ccccc12)C(=O)N[C@H](C(=O)N[C@H](C(=O)N[C@@H](CCC(N)=O)C(=O)N[C@H](C(=O)O)C(C)C)[C@@H](C)O)[C@@H](C)CC)OC(=O)CCCCCCCCCCCCCCC
12 | 0.281 µM | – | – | – | CCCCCCCCCCCCCCCC(=O)OC[C@H](CS[C@H](NC(C)=O)C(=O)N[C@@H](CO)C(=O)N[C@@H](CCCCN)C(=O)N[C@@H](CCCCN)C(=O)N[C@@H](CCCCN)C(=O)N[C@@H](CCCCN)C(=O)N[C@@H](CO)C(=O)N[C@@H](CC(C)C)C(=O)N[C@@H](CC(C)C)C(=O)N[C@@H](CCSC)C(=O)N[C@@H](Cc1c[nH]c2ccccc12)C(=O)N[C@H](C(=O)N[C@H](C(=O)N[C@@H](CCC(N)=O)C(=O)N[C@H](C(=O)O)C(C)C)[C@@H](C)O)[C@@H](C)CC)OC(=O)CCCCCCCCCCCCCCC
13 | 17.4 µM | – | – | – | CCCCCCCCCCCCCCCC(=O)OCC[C@@H](CS[C@H](NC(C)=O)C(=O)N[C@@H](CO)C(=O)N[C@@H](CCCCN)C(=O)N[C@@H](CCCCN)C(=O)N[C@@H](CCCCN)C(=O)N[C@@H](CCCCN)C(=O)N[C@@H](CO)C(=O)N[C@@H](CC(C)C)C(=O)N[C@@H](CC(C)C)C(=O)N[C@@H](CCSC)C(=O)N[C@@H](Cc1c[nH]c2ccccc12)C(=O)N[C@H](C(=O)N[C@H](C(=O)N[C@@H](CCC(N)=O)C(=O)N[C@H](C(=O)O)C(C)C)[C@@H](C)O)[C@@H](C)CC)OC(=O)CCCCCCCCCCCCCCC
14 | 4.45 µM | – | – | – | CCCCCCCCCCCCCCCC(=O)OCCCCC[C@H](CS[C@H](N)C(=O)N[C@@H](CO)C(=O)N[C@@H](CCCCN)C(=O)N[C@@H](CCCCN)C(=O)N[C@@H](CCCCN)C(=O)N[C@@H](CCCCN)C(=O)N[C@@H](CO)C(=O)N[C@@H](CC(C)C)C(=O)N[C@@H](CC(C)C)C(=O)N[C@@H](CCSC)C(=O)N[C@@H](Cc1c[nH]c2ccccc12)C(=O)N[C@H](C(=O)N[C@H](C(=O)N[C@@H](CCC(N)=O)C(=O)N[C@H](C(=O)O)C(C)C)[C@@H](C)O)[C@@H](C)CC)OC(=O)CCCCCCCCCCCCCCC
15 | 46.2 µM | – | – | – | CCCCCCCCCCCCCCCC(=O)OCC[C@@H](CS[C@H](N)C(=O)N[C@@H](CO)C(=O)N[C@@H](CCCCN)C(=O)N[C@@H](CCCCN)C(=O)N[C@@H](CCCCN)C(=O)N[C@@H](CCCCN)C(=O)N[C@@H](CO)C(=O)N[C@@H](CC(C)C)C(=O)N[C@@H](CC(C)C)C(=O)N[C@@H](CCSC)C(=O)N[C@@H](Cc1c[nH]c2ccccc12)C(=O)N[C@H](C(=O)N[C@H](C(=O)N[C@@H](CCC(N)=O)C(=O)N[C@H](C(=O)O)C(C)C)[C@@H](C)O)[C@@H](C)CC)OC(=O)CCCCCCCCCCCCCCC
